We go through four compounds from ChEMBL document CHEMBL4400574, “Chemical synthesis and biological activity of novel brominated 7-deazaadenosine-3',5'-cyclic monophosphate derivatives” (Bioorg Med Chem, 2019).

Assay [1] concerns the target cAMP-dependent protein kinase type I-alpha regulatory subunit (Homo sapiens) (UniProt P10644).
Description: Activation of recombinant human PKAR1alpha expressed in Escherichia coli using Kemptide as substrate by spectrophotometric method
Assay [2] addresses cAMP-dependent protein kinase type II-alpha regulatory subunit (Homo sapiens) (UniProt P13861).
Description: Activation of recombinant human PKAR2alpha expressed in Escherichia coli using Kemptide as substrate by spectrophotometric method
The target of assay [3] is T1, Rap guanine nucleotide exchange factor 3 (Homo sapiens, UniProt O95398).
T1 sequence (O95398 whole entry): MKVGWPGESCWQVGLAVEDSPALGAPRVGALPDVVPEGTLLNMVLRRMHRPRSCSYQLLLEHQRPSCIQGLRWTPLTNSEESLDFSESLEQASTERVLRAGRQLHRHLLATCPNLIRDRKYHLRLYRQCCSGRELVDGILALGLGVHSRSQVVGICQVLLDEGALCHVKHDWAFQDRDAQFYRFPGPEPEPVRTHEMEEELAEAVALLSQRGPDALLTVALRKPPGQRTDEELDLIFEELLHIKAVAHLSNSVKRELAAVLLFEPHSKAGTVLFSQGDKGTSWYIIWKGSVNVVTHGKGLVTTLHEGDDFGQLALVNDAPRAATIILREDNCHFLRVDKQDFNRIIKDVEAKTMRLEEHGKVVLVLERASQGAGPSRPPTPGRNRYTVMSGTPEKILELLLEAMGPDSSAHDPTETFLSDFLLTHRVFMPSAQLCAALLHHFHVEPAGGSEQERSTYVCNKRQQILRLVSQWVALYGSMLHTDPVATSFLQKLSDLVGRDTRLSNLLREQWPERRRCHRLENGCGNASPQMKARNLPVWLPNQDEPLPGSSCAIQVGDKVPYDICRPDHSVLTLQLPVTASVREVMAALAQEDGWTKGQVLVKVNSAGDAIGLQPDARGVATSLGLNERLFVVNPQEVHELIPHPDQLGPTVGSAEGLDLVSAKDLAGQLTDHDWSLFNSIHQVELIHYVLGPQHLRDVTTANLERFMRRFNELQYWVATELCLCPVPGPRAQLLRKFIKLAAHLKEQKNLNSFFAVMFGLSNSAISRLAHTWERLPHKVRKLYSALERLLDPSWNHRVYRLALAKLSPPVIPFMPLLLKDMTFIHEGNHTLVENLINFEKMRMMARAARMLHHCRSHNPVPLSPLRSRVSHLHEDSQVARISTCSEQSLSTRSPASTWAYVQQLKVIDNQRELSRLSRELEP
As to the kind of experiment: Inhibition of 8Fluo-cAMP binding to recombinant human His-tagged EPAC1 (157 to 881 residues) expressed in Escherichia coli measured after 5 mins by fluorescence polarization assay.

For assay [4], the target named is T2, Cyclic nucleotide-gated channel alpha-2 (Rattus norvegicus, UniProt Q00195).
T2 sequence (Q00195 whole entry): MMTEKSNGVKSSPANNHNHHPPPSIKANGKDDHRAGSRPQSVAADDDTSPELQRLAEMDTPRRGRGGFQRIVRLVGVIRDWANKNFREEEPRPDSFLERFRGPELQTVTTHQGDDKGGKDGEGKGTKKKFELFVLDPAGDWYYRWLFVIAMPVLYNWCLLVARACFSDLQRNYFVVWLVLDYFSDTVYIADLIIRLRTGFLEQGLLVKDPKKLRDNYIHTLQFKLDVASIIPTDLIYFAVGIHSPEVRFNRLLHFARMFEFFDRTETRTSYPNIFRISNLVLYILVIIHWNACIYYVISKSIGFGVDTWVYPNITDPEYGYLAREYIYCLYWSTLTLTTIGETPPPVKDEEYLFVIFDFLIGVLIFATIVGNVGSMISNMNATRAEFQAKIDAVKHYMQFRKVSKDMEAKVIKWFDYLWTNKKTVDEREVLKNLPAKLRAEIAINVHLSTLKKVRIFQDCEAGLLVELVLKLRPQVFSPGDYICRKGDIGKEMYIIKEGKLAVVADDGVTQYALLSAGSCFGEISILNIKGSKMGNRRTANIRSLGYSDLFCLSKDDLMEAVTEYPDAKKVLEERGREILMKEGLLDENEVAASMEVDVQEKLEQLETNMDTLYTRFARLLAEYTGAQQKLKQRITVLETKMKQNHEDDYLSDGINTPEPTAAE
Description: Activation of recombinant rat CNGA2 expressed in Xenopus laevis oocyte assessed as increase in current amplitude by patch-clamp electrophysiology method. Background: The patch-clamp technique gives a direct electrical read-out from membranes.

The target of assay [5] is T3, Rap guanine nucleotide exchange factor 4 (Mus musculus, UniProt Q9EQZ6).
T3 sequence (Q9EQZ6 whole entry): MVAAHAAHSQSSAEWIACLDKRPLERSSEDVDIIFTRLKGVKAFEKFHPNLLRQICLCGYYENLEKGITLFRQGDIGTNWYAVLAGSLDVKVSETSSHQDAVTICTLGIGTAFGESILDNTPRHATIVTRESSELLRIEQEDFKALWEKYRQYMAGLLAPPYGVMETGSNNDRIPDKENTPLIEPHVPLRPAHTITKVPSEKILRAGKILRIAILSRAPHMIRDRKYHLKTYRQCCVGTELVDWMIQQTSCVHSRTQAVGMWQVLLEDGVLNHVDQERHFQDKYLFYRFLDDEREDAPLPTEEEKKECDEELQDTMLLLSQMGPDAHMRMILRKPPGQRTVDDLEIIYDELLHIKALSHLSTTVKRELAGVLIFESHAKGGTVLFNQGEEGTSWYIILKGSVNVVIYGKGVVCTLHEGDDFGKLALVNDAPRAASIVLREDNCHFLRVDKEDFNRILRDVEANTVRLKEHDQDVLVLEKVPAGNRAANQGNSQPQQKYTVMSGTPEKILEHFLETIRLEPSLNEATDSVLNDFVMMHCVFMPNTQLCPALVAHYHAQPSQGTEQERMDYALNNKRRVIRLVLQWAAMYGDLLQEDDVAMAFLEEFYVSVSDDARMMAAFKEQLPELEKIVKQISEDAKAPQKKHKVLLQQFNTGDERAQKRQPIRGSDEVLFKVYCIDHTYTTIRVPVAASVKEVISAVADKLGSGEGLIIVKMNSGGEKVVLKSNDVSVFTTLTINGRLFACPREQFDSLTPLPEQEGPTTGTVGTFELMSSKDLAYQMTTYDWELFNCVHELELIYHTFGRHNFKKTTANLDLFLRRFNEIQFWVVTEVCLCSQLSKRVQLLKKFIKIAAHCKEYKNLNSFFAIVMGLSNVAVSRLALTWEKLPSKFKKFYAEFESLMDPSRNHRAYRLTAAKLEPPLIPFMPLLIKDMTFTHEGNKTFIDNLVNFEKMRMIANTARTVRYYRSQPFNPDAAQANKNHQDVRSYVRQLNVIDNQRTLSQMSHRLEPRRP
Description: Inhibition of 8Fluo-cAMP binding to DEP domain deficient mouse EPAC2 (280 to 998 residues) measured after 5 mins by fluorescence polarization assay. (In general: Polarisation of emitted light reports the rotation of a fluorescent probe.)

Assay [6] has as its target CNGA2/CNGA4/CNGB1 (Rattus norvegicus, UniProt O35788+Q00195+Q64359). Description: Activation of recombinant rat CNGA2/CNGA4/CNGB1b heterotetramer expressed in Xenopus laevis oocyte assessed as increase in current amplitude by patch-clamp electrophysiology method.
The target in assay [7] is T4, Potassium/sodium hyperpolarization-activated cyclic nucleotide-gated channel 2 (Mus musculus, UniProt O88703).
T4 sequence (O88703 whole entry): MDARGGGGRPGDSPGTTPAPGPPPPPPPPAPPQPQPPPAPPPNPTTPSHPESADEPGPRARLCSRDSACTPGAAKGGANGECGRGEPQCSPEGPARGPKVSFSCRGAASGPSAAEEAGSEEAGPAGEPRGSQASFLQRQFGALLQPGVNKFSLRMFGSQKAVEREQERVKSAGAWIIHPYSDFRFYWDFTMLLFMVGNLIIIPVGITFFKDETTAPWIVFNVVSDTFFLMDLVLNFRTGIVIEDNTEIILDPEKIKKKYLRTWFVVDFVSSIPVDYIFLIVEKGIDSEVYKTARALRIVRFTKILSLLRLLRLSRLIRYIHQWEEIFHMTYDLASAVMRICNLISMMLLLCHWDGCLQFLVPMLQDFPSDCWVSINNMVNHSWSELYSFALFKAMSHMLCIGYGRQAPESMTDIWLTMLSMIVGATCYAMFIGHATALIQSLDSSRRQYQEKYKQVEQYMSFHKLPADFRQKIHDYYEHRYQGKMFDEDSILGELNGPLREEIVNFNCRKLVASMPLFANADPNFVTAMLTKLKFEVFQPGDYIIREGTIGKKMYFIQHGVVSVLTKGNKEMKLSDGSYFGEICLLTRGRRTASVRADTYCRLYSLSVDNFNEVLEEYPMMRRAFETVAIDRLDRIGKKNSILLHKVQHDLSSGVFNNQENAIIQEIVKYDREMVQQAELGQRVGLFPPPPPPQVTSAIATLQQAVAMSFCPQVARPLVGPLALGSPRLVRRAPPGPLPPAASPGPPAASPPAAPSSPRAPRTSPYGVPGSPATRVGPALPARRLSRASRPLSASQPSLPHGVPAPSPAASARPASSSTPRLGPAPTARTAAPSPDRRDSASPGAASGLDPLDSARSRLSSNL
Description: Activation of recombinant mouse HCN2 expressed in Xenopus laevis oocyte assessed as increase in current amplitude at -30 mV holding potential by patch-clamp electrophysiology method.

Chain of cAMP-dependent protein kinase type I-alpha regulatory subunit (Homo sapiens) (P10644 whole entry): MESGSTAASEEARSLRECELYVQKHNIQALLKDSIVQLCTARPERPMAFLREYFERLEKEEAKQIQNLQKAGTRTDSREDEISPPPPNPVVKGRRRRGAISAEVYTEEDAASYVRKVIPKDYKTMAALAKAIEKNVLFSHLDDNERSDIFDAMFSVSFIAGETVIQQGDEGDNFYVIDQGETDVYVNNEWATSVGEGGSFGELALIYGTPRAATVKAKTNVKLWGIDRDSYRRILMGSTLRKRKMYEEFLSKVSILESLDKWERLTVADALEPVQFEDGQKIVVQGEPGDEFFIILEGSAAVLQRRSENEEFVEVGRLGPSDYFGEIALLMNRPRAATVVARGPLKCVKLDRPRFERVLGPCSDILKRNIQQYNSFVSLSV
Chain of cAMP-dependent protein kinase type II-alpha regulatory subunit (Homo sapiens) (P13861 whole entry): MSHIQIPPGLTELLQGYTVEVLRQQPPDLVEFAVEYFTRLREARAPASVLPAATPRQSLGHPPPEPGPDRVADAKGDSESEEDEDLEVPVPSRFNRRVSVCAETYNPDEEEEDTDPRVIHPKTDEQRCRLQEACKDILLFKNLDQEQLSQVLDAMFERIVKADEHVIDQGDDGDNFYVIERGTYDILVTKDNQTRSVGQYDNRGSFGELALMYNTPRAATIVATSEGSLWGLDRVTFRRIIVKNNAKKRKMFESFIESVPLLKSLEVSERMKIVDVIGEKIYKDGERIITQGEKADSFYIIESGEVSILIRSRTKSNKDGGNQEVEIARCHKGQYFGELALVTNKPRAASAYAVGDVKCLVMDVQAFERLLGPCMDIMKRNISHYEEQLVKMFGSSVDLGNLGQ
Chain of CNGA2/CNGA4/CNGB1 (Q64359 whole entry, one chain of several): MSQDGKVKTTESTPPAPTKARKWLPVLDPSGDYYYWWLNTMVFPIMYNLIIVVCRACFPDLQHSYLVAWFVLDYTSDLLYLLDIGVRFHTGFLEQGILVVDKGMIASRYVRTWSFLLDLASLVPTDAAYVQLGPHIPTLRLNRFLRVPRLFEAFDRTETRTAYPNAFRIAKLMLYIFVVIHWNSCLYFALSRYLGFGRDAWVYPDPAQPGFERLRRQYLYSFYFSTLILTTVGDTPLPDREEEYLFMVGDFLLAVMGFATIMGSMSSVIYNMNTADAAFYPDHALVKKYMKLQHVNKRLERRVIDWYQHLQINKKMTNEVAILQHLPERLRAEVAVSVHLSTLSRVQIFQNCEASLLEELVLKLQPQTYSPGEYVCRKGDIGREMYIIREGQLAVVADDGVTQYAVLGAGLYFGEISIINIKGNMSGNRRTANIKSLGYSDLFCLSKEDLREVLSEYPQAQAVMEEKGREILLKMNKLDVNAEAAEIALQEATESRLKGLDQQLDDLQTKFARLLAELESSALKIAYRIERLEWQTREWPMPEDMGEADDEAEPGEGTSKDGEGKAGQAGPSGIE
Chain of CNGA2/CNGA4/CNGB1 (O35788 whole entry, one chain of several): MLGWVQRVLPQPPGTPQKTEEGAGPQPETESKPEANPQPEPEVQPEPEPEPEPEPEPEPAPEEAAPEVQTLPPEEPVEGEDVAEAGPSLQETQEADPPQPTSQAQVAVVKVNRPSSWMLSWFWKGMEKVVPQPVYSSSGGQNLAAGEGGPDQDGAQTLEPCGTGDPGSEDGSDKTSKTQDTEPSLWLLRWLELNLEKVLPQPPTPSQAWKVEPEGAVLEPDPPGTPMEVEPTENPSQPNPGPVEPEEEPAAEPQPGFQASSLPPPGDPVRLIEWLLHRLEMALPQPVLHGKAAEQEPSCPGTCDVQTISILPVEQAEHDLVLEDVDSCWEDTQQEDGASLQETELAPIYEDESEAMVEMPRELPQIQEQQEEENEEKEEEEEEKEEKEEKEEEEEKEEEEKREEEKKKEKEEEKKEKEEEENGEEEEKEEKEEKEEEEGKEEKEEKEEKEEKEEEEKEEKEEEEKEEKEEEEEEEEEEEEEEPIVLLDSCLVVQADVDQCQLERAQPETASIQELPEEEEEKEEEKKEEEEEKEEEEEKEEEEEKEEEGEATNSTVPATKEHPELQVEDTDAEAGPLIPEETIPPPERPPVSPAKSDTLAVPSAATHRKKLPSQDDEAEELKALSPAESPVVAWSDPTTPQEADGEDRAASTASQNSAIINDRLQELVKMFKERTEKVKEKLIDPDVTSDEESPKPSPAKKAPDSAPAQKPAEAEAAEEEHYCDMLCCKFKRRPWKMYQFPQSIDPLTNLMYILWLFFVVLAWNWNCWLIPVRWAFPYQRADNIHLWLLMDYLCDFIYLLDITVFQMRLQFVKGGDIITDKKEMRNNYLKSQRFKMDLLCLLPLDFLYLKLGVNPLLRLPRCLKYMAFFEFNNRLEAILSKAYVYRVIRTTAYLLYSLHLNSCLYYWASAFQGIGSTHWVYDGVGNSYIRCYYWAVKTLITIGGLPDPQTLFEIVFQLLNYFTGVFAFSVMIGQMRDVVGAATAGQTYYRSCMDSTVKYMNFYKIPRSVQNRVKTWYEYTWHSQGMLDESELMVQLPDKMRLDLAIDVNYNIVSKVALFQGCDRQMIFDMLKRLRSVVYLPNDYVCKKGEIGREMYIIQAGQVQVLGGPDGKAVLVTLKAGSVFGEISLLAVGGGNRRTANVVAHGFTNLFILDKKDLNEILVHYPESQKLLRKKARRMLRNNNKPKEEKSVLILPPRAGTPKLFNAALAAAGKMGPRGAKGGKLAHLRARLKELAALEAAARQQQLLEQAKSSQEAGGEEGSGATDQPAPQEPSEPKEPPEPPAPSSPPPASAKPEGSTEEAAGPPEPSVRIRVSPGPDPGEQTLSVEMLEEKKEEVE

One may read the EC50 as the concentration giving half of the maximal effect. For the compound `Nc1ncnc2c1cc(Br)n2[C@@H]1O[C@@H]2COP(=O)(O)O[C@H]2[C@H]1O`, the figures for the Kact in assay [1] and in assay [2] were 0.043 µM and 0.072 µM, respectively. In addition, the half-maximal effective concentration (EC50) stood at 530 nM in assay [3], 6.4 µM in assay [4], 300 nM in assay [5] and 630 nM in assay [6].
As to `Nc1ncnc2c1c(Br)cn2[C@@H]1O[C@@H]2COP(=O)(O)O[C@H]2[C@H]1O`, the results for the Kact in assay [1] and in assay [2] were 0.028 µM and 0.097 µM, respectively. Moreover, the EC50 was 2540 nM in assay [3], 0.54 µM in assay [4], 2360 nM in assay [5] and 120 nM in assay [6].
With `Nc1ncnc2c1ccn2[C@@H]1O[C@@H]2COP(=O)(O)O[C@H]2[C@H]1O`, the figures for the Kact in assay [1] and in assay [2] were 0.199 µM and 0.238 µM, respectively. Also, the concentration for a half-maximal effect (EC50) in assay [3] came to 2750 nM; in assay [4] it was 2.08 µM; in assay [5], 2060 nM; in assay [6] it was 360 nM; in assay [7], 15 nM.
As for `Nc1ncnc2c1nc(Br)n2[C@@H]1O[C@@H]2COP(=O)(O)O[C@H]2[C@H]1O`, the results for the Kact in assay [1] and in assay [2] were 0.056 µM and 0.088 µM, respectively. Moreover, the EC50 in assay [3] turned out to be 1090 nM; in assay [4], 15.4 µM; in assay [5] it was 780 nM; in assay [6], 1600 nM.
